For series [1], the target named is T1, Cytochrome P450 2C9 (Homo sapiens, UniProt P11712).
A further series has as its target Cytochrome P450 3A4 (Homo sapiens, UniProt P08684).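 Further: CYP3A4 tested as one member of a cytochrome P450 panel screen.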
For a further series, the system named is Escherichia coli. Kind of series: microbe, parasite or virus in culture.
In series [2] the target is Dual specificity tyrosine-phosphorylation-regulated kinase 1A (Rattus norvegicus, UniProt Q63470). The format is biochemical, Homo sapiens.
The target of another series is T2, Cytochrome P450 1A2 (Homo sapiens, UniProt P05177).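 Further: PubChem cytochrome P450 panel assay, CYP1A2 panel member.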
T2 sequence (P05177 whole entry): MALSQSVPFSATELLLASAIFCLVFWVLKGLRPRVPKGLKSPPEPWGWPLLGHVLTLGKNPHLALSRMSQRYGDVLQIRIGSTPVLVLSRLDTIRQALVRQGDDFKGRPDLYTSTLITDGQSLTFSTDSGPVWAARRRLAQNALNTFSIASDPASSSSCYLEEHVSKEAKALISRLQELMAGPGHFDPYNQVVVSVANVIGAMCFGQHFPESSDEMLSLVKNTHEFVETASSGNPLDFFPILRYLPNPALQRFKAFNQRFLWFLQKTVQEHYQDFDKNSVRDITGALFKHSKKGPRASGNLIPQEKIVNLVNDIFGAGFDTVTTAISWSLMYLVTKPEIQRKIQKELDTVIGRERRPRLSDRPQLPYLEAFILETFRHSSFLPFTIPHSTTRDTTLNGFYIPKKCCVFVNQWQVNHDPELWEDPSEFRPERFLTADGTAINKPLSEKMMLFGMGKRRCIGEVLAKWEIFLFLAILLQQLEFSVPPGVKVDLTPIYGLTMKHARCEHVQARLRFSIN

The target of a further series is Cytochrome P450 2C19 (Homo sapiens, UniProt P33261). Put plainly: Cytochrome panel assay with activity outcomes. Panel member name: p450-cyp2c19 Compounds with AC50 equal or less than 10 uM are considered active. It is filed as functional. To be noted: read-out: AC50.
Cytochrome P450 2C19, sequence (P33261 whole entry): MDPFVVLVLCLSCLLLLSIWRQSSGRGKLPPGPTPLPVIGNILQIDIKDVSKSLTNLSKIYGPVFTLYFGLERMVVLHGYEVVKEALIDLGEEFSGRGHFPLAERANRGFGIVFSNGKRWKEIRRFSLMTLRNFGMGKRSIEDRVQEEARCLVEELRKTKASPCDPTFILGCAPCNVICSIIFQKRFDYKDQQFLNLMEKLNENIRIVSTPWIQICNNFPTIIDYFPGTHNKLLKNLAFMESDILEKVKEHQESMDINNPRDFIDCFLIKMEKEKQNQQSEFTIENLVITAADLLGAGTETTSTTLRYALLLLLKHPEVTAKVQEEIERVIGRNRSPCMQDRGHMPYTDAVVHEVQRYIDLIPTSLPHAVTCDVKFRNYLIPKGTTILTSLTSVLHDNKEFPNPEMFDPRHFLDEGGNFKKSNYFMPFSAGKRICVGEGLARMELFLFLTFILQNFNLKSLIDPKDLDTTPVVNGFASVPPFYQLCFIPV
The target of the next series is T3, Protein RecA (Mycobacterium tuberculosis, UniProt P9WHJ3).
T3 sequence (P9WHJ3 whole entry): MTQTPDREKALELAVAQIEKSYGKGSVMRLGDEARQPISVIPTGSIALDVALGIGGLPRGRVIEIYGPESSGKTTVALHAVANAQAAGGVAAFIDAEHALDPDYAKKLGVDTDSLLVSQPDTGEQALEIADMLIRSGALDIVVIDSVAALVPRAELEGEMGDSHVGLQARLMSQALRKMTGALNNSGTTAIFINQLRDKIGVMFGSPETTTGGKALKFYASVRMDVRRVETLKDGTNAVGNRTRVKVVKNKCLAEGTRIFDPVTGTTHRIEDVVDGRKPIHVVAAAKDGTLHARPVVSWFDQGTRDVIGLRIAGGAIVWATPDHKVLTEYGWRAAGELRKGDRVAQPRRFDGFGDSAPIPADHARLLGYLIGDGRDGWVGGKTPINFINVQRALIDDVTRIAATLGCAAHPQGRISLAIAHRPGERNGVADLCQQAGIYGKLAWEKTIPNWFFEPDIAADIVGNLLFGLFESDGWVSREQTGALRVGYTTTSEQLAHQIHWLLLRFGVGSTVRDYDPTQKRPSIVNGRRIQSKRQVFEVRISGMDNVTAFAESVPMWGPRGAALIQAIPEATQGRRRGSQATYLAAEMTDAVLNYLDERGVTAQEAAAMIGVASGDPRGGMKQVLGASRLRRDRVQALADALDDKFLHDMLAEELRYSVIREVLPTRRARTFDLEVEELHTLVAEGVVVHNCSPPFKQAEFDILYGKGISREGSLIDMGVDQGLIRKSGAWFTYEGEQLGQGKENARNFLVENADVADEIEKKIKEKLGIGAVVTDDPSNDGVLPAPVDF
Put plainly: Fluorescence Cell-Free Homogeneous Dose Retest to Identify Inhibitors of RecA-Intein Splicing Activity. [Related pubchem assays (depositor defined):AID2097, AID2223, AID489010, AID492950]. The format is functional.

Series [3] can be described thus: cytotoxicity in MIN6 insulinoma cells, dose response, cytotoxicity control, cell-based, mouse insulinoma (AID 2122).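 Further: confirmatory high-throughput counterscreen run to flag cytotoxic compounds; mouse MIN-6 beta cells carrying an insulin promoter eGFP reporter.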 The format is functional.
The nature of series [4]: insulin promoter down-regulators in MIN6 cells, imaging, high-content screening, mouse beta cells (AID 1628). It is filed as functional.
In the next series the test system is INS1. Kind of series: beta cell apoptosis inhibitors, cytokine rescue, dose response, luminescence, retest (AID 449756).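 Further: cell death triggered by IL-1 beta plus TNF-alpha plus IFN-gamma mixture; protective hits raise ATP signal compared with cytokine alone wells.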 It is filed as functional, cell-based. To be noted: Rattus norvegicus.
Series [5] deals with T4, Replicative DNA helicase DnaB (Mycobacterium tuberculosis, UniProt P9WMR3).
T4 sequence (P9WMR3 whole entry): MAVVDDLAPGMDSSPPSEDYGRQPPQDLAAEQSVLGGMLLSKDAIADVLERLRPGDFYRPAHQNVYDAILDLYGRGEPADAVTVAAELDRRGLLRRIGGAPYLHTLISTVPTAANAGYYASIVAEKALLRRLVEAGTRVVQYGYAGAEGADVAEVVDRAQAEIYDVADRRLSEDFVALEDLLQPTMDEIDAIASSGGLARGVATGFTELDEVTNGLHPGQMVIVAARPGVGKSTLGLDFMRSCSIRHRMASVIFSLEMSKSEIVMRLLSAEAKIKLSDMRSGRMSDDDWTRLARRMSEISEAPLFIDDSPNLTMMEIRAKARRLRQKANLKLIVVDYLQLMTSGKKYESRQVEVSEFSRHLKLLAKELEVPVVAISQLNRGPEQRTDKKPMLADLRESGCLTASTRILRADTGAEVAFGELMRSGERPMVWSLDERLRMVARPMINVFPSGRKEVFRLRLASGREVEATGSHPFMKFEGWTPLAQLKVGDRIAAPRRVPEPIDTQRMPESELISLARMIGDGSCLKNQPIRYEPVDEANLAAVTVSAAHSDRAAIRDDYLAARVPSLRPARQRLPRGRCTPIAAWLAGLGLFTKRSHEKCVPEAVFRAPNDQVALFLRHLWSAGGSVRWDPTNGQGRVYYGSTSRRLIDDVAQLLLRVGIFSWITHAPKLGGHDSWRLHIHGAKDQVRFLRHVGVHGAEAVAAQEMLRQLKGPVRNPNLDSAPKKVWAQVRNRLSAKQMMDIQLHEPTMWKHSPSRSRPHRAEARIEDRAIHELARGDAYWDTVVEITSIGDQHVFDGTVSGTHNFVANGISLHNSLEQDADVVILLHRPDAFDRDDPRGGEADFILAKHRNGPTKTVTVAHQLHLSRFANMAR
Kind of series: DnaB intein splicing inhibitors, dose response, biochemical, cell-free fluorescence (AID 449749). It is filed as functional.

The target in series [6] is T5, Ubiquitin-conjugating enzyme E2 N (Homo sapiens, UniProt P61088).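 Further: Dose-response confirmation in a TR-FRET assay detecting UBC13-driven polyubiquitin chain formation, inhibition measured.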
T5 sequence (P61088 whole entry): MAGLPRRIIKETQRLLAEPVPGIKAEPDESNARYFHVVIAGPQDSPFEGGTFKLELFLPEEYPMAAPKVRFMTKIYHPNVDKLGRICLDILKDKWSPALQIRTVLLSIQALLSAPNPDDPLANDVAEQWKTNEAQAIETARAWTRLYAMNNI
The format is functional.

In another series the test system is A-375. Kind of series: A375 melanoma cell viability reduction, dose response, counter-screen for MITF modulator project, cherry-pick samples, set 2 (AID 540335). To be noted: Homo sapiens. The format is functional, cell-based. For orientation: A counterscreen serves to expose hits that act by an unwanted route or on another target.
For series [7], the target named is T6, Microphthalmia-associated transcription factor (Homo sapiens, UniProt O75030).
T6 sequence (O75030 whole entry): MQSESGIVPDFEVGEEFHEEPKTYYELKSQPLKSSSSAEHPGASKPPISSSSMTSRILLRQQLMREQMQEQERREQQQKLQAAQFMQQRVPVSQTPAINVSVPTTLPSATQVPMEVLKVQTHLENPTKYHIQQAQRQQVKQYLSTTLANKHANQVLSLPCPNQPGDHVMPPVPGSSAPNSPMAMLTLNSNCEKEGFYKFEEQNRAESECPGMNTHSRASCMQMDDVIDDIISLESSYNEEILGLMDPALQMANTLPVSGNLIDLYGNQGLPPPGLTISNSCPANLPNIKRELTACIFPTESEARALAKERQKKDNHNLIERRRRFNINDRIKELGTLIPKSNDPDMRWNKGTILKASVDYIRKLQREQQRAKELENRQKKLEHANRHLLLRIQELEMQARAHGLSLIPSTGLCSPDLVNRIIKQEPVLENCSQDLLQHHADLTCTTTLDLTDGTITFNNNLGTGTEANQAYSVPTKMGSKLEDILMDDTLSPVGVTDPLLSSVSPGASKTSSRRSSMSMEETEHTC
Kind of series: TRPM1 promoter luciferase signal decrease, dose response, MITF inhibitor project, cell-based, SK-MEL-5, cherry-picked, set 3 (AID 493073).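 Further: SK-MEL-5 melanoma cells with luciferase driven by the MITF target TRPM1 promoter.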 It is filed as functional.

Series [8] can be described thus: Luminescence Cell-Based Dose Retest to Confirm Inhibitors of Cancer Stem Cells. [Related pubchem assays (depositor defined):AID2717, AID2721]. It is filed as functional. To be noted: Homo sapiens.
Series [9] can be described thus: growth suppression of beta-catenin-knockout colon cells, dose response, cell-based, HCT116, human colon tumor (AID 1045).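 Further: HCT116 colon tumor cells with beta catenin knocked out; cells exposed to compound for 60 hours.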 It is filed as functional.
Series [10] in a line: growth suppression of PTEN-null colon cells, dose response, cell-based, HCT116 PTEN knockout (AID 1047).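 Further: HCT116 colon tumor cells with PTEN knocked out; cells exposed to compound for 60 hours before readout; potency for loss of cell viability measured by luminescence.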 The format is functional.
For series [11], the target named is T1, Cytochrome P450 2C9. The source holds these as a separate data set.

Structures are written as SMILES. Calls of active or inactive are those of the source. Some results are limits rather than exact numbers.

T1 sequence (P11712 whole entry): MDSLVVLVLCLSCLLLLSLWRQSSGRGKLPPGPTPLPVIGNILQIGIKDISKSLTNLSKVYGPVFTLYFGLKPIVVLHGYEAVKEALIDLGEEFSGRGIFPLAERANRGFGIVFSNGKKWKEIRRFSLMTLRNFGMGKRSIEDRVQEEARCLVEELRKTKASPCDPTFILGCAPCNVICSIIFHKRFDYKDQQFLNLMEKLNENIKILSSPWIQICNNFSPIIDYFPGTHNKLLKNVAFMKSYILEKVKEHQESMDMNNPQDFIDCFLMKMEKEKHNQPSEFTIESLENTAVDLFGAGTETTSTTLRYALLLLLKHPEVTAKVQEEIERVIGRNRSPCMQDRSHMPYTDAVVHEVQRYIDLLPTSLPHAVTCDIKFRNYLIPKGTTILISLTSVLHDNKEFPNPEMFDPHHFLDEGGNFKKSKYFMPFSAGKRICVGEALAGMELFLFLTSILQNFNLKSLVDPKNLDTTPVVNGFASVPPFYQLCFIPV
Cytochrome P450 3A4, sequence (P08684 whole entry): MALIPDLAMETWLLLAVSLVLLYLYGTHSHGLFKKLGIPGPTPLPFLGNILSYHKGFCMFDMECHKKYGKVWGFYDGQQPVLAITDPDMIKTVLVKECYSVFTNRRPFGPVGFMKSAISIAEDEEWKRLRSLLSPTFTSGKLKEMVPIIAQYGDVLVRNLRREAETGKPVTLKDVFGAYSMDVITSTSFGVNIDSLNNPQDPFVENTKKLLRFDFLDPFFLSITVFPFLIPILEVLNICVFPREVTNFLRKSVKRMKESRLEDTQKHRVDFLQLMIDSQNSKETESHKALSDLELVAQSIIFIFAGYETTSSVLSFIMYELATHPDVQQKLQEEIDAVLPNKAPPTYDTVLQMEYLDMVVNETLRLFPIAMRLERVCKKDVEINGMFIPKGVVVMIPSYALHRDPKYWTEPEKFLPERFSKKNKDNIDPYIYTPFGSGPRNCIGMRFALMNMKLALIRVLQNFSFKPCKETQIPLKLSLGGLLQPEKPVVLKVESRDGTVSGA

Turning to `O=c1[nH]c(=O)n(Cc2ccco2)c2c1C(C(F)(F)F)(C(F)(F)F)NC(CCC1CCCCC1)=N2`, the concentration at half-maximal activity (AC50) at Cytochrome P450 2C9 [1] is 2.82 µM (inconclusive); on Cytochrome P450 3A4, “inconclusive”.
Take `CCC(CC)C(=O)Nc1nnc(S(=O)(=O)N2CCCCCC2)s1`: the AC50 in the series with Escherichia coli is 29.7 µM (active).
With `Cc1nc(COc2ccccc2Cl)sc1-c1ccnc(N)n1`, the half-maximal activity concentration (AC50) in [2] was 0.235 µM (active).
As to `CCC(CC)c1nnc(NC(=O)COc2ccc3c(C)cc(=O)oc3c2)s1`, the AC50 at Cytochrome P450 2C9 [1] is 7.08 µM (inconclusive); at Cytochrome P450 3A4, “inconclusive”.
Consider `COc1ccc(Oc2nc(C)cc(C)c2S(C)(=O)=O)cc1`, for which the AC50 is 11.2 µM (inconclusive) on Cytochrome P450 1A2, 15.8 µM (inconclusive) at Cytochrome P450 2C9 [1], “inconclusive” on Cytochrome P450 3A4 and 25.1 µM (inconclusive) on Cytochrome P450 2C19.
Consider `c1ccc(Nc2nc(NCc3ccco3)c3ccccc3n2)cc1`, for which, at Protein RecA, the EC50 is 12 µM (active). Also, the results for the IC50 in series [3], in series [4] and in [6] were 1.08 µM (active), 1.22 µM (active) and > 20 µM (inactive), respectively. For the same compound, the AC50 in the series on INS1 is 5.14 µM (active); in [5], 3.66 µM (active).
Regarding `COC(=O)C1=C(C)N(Cc2ccccc2)C(NCc2ccccc2)=N[C@H]1c1ccccc1`, the concentration at half-maximal activity (AC50) is 23.7 µM (active) in the series on A-375 and 18 µM (active) in series [7].
`CN(C)CCNC(=O)/C(=C/c1ccc(-c2ccc(Cl)cc2Cl)o1)NC(=O)c1ccccc1`: the half-maximal activity concentration (AC50) is 6.63 µM (active) in [8], 18.9 µM (active) in the series on A-375, 4.97 µM (active) in [7] and 7.89 µM (active) in the series on INS1. Moreover, the figures for the EC50 in series [9] and in series [10] were 4.99 µM (active) and 5.71 µM (active), respectively.
`C=CCNc1sc(C(=O)c2ccccc2)c(N)c1C#N`: the AC50 result at Cytochrome P450 2C9 [11] and on Cytochrome P450 3A4 was “inconclusive” each time.

Usually AC50 stands for the concentration giving half of the maximal activity seen. As usually defined, the EC50 is the concentration giving half of the maximal effect. By IC50 is commonly meant the concentration at which inhibition is half-maximal.

(Values after ChEMBL document CHEMBL1201862, “PubChem BioAssay data set” (2004).)
